How the values were obtained:
Format in all cases: binding
core-bradavidin [1] = biological target: T1, core-bradavidin (Bradyrhizobium diazoefficiens, UniProt Q89IH6); assay: differential scanning calorimetry; conditions: 50 mM sodium phosphate pH 7.0, 100 mM NaCl; 15 µM protein, ~3:1 biotin:subunit; 120 °C/hour
T1 construct: gene blr5658; C-terminally truncated core form, 118 residues (truncation between Leu118 and Leu119), lacks Brad-tag; E. coli BL21-AI periplasm; homotetramer

core-bradavidin [2] = biological target: T1, core-bradavidin; assay: isothermal titration calorimetry
Text: isothermal titration calorimetry on core-bradavidin

wt bradavidin [3] = biological target: T2, wt bradavidin (Bradyrhizobium diazoefficiens, UniProt Q89IH6); assay: differential scanning calorimetry; conditions: 50 mM sodium phosphate pH 7.0, 100 mM NaCl; 15 µM protein, ~3:1 biotin:subunit; 120 °C/hour
T2 construct: gene blr5658; E. coli BL21-AI periplasm; homotetramer
T2 sequence (Q89IH6 26-163): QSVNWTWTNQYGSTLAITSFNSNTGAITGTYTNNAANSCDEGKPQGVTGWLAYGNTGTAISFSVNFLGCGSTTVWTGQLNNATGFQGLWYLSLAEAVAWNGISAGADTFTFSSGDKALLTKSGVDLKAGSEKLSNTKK

wt bradavidin [4] = biological target: T2, wt bradavidin; assay: isothermal titration calorimetry
Text: isothermal titration calorimetry on wt bradavidin

Question: Which Tm with biotin (core-bradavidin [1]) does the source give for `O=C(O)CCCC[C@@H]1SC[C@@H]2NC(=O)N[C@@H]21` [D-biotin] here?
Answer: 97.9±0.2 °C

Question: What about the Kd (core-bradavidin [2]) of the same molecule?
Answer: < 1 nM

Question: And the Tm with biotin (wt bradavidin [3])?
Answer: 101.7±0.1 °C

Question: What about the Kd (wt bradavidin [4]) of the same molecule?
Answer: 300 nM

Source: article PMC3344845, “Structure of Bradavidin – C-Terminal Residues Act as Intrinsic Ligands” (PLoS ONE, 2012)
